This passage reports glass transition temperature results from the PolyMetriX glass transition set.

In turn, `*/C=C(/*)CCCOc1ccc(OC(=O)c2ccc(OCCCC)cc2)cc1` (repeat unit) had a glass transition temperature of 36.00 °C. Turning to `*C(=O)NNC(=O)c1ccc([Si](c2ccccc2)(c2ccccc2)c2ccc(C(=O)NNC(=O)c3ccc(*)nc3)cc2)cc1` (repeat unit), the glass transition temperature stood at 240.00 °C. Consider `*C(=O)NNC(=O)c1ccc([Si](c2ccccc2)(c2ccccc2)c2ccc(C(=O)NNC(=O)c3cncc(*)c3)cc2)cc1` (repeat unit), for which the glass transition temperature amounted to 234.00 °C. `*C(=O)Nc1cc(C(F)(F)F)ccc1Oc1cccc2c(Oc3ccc(C(F)(F)F)cc3NC(=O)c3ccc4c(c3)C(=O)N(c3ccc(Oc5ccc(N6C(=O)c7ccc(*)cc7C6=O)cc5-c5ccccc5)c(-c5ccccc5)c3)C4=O)cccc12` (repeat unit) came in with a glass transition temperature of 376.00 °C. As for `*C(=O)Nc1cc(NC(=O)c2ccc3c(c2)C(=O)N(c2cc(-c4nc5ccccc5o4)cc(N4C(=O)c5ccc(*)cc5C4=O)c2)C3=O)cc(-c2nc3ccccc3[nH]2)c1` (repeat unit), the figure is 371.00 °C; as for `*C(=O)Nc1cc(NC(=O)c2ccc3c(c2)C(=O)N(c2cccc(N4C(=O)c5ccc(*)cc5C4=O)c2)C3=O)cc(-c2nc3ccccc3[nH]2)c1` (repeat unit), 361.00 °C.

As to `*C(=O)Nc1cc(NC(=O)c2cccc(*)n2)cc(-c2nnc(-c3ccccn3)o2)c1` (repeat unit), the glass transition temperature was determined as 255.00 °C. As to `*C(=O)Nc1cc(NC(=O)c2cncc(*)c2)cc(-c2nnc(-c3ccccn3)o2)c1` (repeat unit), the glass transition temperature worked out at 185.00 °C. In turn, `*C(=O)Nc1ccc(-c2ccc(N3C(=O)CC(N4C(=O)c5ccc(*)cc5C4=O)C3=O)cc2)cc1` (repeat unit) displayed a glass transition temperature of 219.00 °C. As for `*C(=O)Nc1ccc(-c2ccc(NC(=O)c3ccc4c(c3)C(=O)N(c3ccc(Oc5ccc(N6C(=O)c7ccc(*)cc7C6=O)cc5)cc3)C4=O)cc2)cc1` (repeat unit), the glass transition temperature came out at 315.00 °C.

In the case of `*C(=O)Nc1ccc(-c2ccc(NC(=O)c3ccc4c(c3)C(=O)N(c3cccc(P(=O)(c5ccccc5)c5cccc(N6C(=O)c7ccc(*)cc7C6=O)c5)c3)C4=O)cc2)cc1` (repeat unit), the glass transition temperature came to 253.00 °C. In turn, `*C(=O)Nc1ccc(-c2sc(-c3ccc(NC(=O)c4ccc5c(c4)C(=O)N(c4ccc(Oc6ccc7ccc(Oc8ccc(N9C(=O)c%10ccc(*)cc%10C9=O)cc8)cc7c6)cc4)C5=O)cc3)c(-c3ccccc3)c2-c2ccccc2)cc1` (repeat unit) gave a glass transition temperature of 311.00 °C. In turn, `*C(=O)Nc1ccc(-c2sc(-c3ccc(NC(=O)c4ccc5c(c4)C(=O)N(c4ccc(Oc6cccc7c(Oc8ccc(N9C(=O)c%10ccc(*)cc%10C9=O)cc8)cccc67)cc4)C5=O)cc3)c(-c3ccccc3)c2-c2ccccc2)cc1` (repeat unit) returned a glass transition temperature of 340.00 °C. In the case of `*C(=O)OCCCCCCCCCOC(=O)c1ccc(NC(=O)c2ccc(N3C(=O)c4ccc(*)cc4C3=O)cc2)cc1` (repeat unit), the glass transition temperature turned out to be 100.00 °C. As to `*C(=O)c1cc(C(=O)c2ccc3c(c2)C(=O)N(c2ccc(Oc4ccc(N5C(=O)c6ccc(*)cc6C5=O)cc4)cc2)C3=O)cc(-c2ccccc2)c1` (repeat unit), the glass transition temperature was 258.50 °C. Molecule `*C(=O)c1cc(C(=O)c2ccc3c(c2)C(=O)N(c2ccc(Oc4ccc(S(=O)(=O)c5ccc(Oc6ccc(N7C(=O)c8ccc(*)cc8C7=O)cc6)cc5)cc4)cc2)C3=O)cc(-c2ccccc2)c1` (repeat unit) yielded a glass transition temperature of 256.50 °C. Take `*C(=O)c1cc2c(cc1Cl)C(=O)N(c1cc(N3C(=O)c4cc(*)c(Cl)cc4C3=O)cc(C(F)(F)F)c1)C2=O` (repeat unit): the glass transition temperature amounted to 305.00 °C.

`*CCCCCCCCCCCCOC(=O)NCc1ccc(CNC(=O)O*)cc1` (repeat unit): the glass transition temperature was determined as 45.00 °C.

In turn, `*CCCCCCCCCCOC(=O)NCc1ccc(CNC(=O)O*)cc1` (repeat unit) showed a glass transition temperature of 49.00 °C. In turn, `*CCCCCCOC(=O)NCc1ccc(CNC(=O)O*)cc1` (repeat unit) returned a glass transition temperature of 56.00 °C. `*CCCCCCOc1ccc(-c2cc(-c3ccccc3)c(-c3ccc(NC(=O)c4ccc(C(=O)Nc5ccc(-c6c(-c7ccccc7)cc(-c7ccc(O*)cc7)cc6-c6ccccc6)cc5)cc4)cc3)c(-c3ccccc3)c2)cc1` (repeat unit) displayed a glass transition temperature of 127.00 °C.

Take `*CCNC(=O)c1ccc(O*)cc1` (repeat unit): the glass transition temperature turned out to be 150.00 °C. As to `*CCNC(=O)c1cccc(O*)c1` (repeat unit), the glass transition temperature was 106.00 °C. In the case of `*Cc1cccc(CNC(=O)C2=C(C(=O)N*)C3C=CC2C3)c1` (repeat unit), the glass transition temperature came to 291.00 °C.

Take `*Cc1cccc(CNC(=O)c2cccc(C(=O)N*)c2)c1` (repeat unit): the glass transition temperature stood at 172.00 °C. In turn, `*Cc1cccc(CNC(=O)c2ccccc2-c2ccccc2C(=O)N*)c1` (repeat unit) displayed a glass transition temperature of 159.00 °C.

`*NNC(=O)c1ccccc1C(=O)Nc1cccc(/C=C2\CC/C(=C\c3cccc(NC(=O)c4ccccc4C(*)=O)c3)C2=O)c1` (repeat unit): the glass transition temperature worked out at 202.10 °C. `*NNC(=O)c1ccccc1C(=O)Nc1cccc(/C=C2\CCC/C(=C\c3cccc(NC(=O)c4ccccc4C(*)=O)c3)C2=O)c1` (repeat unit) registered a glass transition temperature of 195.00 °C. In the case of `*Nc1c(-c2ccccc2)cc(-c2ccc(-c3cc(-c4ccccc4)c(NC(=O)c4ccc(C(*)=O)cc4)c(-c4ccccc4)c3)cc2)cc1-c1ccccc1` (repeat unit), the glass transition temperature is 135.00 °C. `*Nc1cc(NC(=O)NC2CCC(CC3CCC(NC(*)=O)CC3)CC2)cc(C(=O)Nc2ccc3c(c2)C(=O)c2ccccc2C3=O)c1` (repeat unit) came in with a glass transition temperature of 148.00 °C. For `*Nc1cc(NC(=O)c2ccc(C(*)=O)cc2)cc(C(=O)OC(c2ccccc2)c2ccccc2)c1` (repeat unit) the value was 217.00 °C. For `*Nc1cc(NC(=O)c2cccc(C(*)=O)c2)cc(-c2nnc(-c3ccccn3)o2)c1` (repeat unit) the value was 155.00 °C; for `*Nc1ccc(-c2ccc(NC(=O)c3cccc(C(*)=O)c3)c(S)c2)cc1S` (repeat unit), 395.00 °C; for `*Nc1ccc(C(c2ccc(NC(=O)c3cc(NC(=O)C45CC6CC(CC(C6)C4)C5)cc(C(*)=O)c3)cc2)(C(F)(F)F)C(F)(F)F)cc1` (repeat unit), 365.00 °C.

`*Nc1ccc(C(c2ccc(NC(=O)c3ccc(C(*)=O)cc3)cc2)(C(F)(F)F)C(F)(F)F)cc1` (repeat unit) had a glass transition temperature of 290.00 °C. In turn, `*Nc1cccc(/C=C/c2ccc(NC(=O)c3cccc(C(*)=O)c3)cc2)c1` (repeat unit) came in with a glass transition temperature of 272.00 °C. Turning to `*Nc1cccc(C#Cc2ccc(NC(=O)c3cccc(C(*)=O)c3)cc2)c1` (repeat unit), the glass transition temperature came to 268.00 °C.

Molecule `*Nc1cccc2c1C(=O)c1cccc(N[Se]*)c1C2=O` (repeat unit) displayed a glass transition temperature of 52.00 °C. Molecule `*Oc1ccc(C(=O)NNC(=O)c2ccc(*)cc2)cc1` (repeat unit) showed a glass transition temperature of 263.00 °C.

Turning to `*Oc1ccc(C(=O)NNC(=O)c2ccc(C(=O)NNC(=O)c3ccc(OC(=O)c4cccc(C(*)=O)c4)cc3)cc2Oc2ccccc2)cc1` (repeat unit), the glass transition temperature came out at 160.00 °C. Regarding `*Oc1ccc(C(=O)Nc2ccc(Br)cc2-c2ccc(NC(=O)c3ccc(*)cc3)cc2)cc1` (repeat unit), the glass transition temperature was 249.00 °C. As for `*Oc1ccc(C(=O)c2ccc(NC(=O)c3ccc(C(=O)Nc4ccc(C(=O)c5ccc(*)cc5)cc4)cc3)cc2)cc1` (repeat unit), the figure is 187.00 °C; as for `*Oc1ccc(C(=O)c2ccc(NC(=O)c3cccc(C(=O)Nc4ccc(C(=O)c5ccc(*)cc5)cc4)c3)cc2)cc1` (repeat unit), 214.00 °C; as for `*Oc1ccc(CNC(=O)c2ccc(C(=O)NCc3ccc(OC4COC5C(*)COC45)cc3)cc2)cc1` (repeat unit), 122.00 °C. The molecule `*Oc1ccc(Oc2ccc(C(=O)c3ccc(-c4ccc(C(=O)c5ccc(*)cc5)cc4)cc3)cc2)cc1-c1ccccc1` (repeat unit) came in with a glass transition temperature of 186.00 °C. As for `*c1cc(C(=O)Nc2ccc(-c3nnc(*)o3)cc2)cc(N2C(=O)c3ccccc3C2=O)c1` (repeat unit), the figure is 324.00 °C. `*c1ccc(-c2ccc(NC(=O)c3cccc(C(=O)Nc4ccc(-c5ccc(-n6c(=O)c7cc8c(=O)n(*)c(=O)c8cc7c6=O)cc5)cc4)c3)cc2)cc1` (repeat unit): the glass transition temperature worked out at 227.00 °C. `*c1ccc(-c2ccc(NC(=O)c3cccc(C(=O)Nc4ccc(-c5ccc(N6C(=O)c7ccc(Oc8ccc9c(c8)C(=O)N(*)C9=O)cc7C6=O)cc5)cc4)c3)cc2)cc1` (repeat unit) had a glass transition temperature of 233.00 °C. `*c1ccc(C(=O)c2ccc(-n3c(=O)c4cc5c(=O)n(*)c(=O)c5cc4c3=O)cc2)cc1` (repeat unit): the glass transition temperature amounted to 424.00 °C. As for `*c1ccc(NC2CC(=O)N(c3ccc(Cc4ccc(N5C(=O)CC(Nc6ccc(-c7nc(-c8ccc(/N=N/c9ccc([N+](=O)[O-])cc9)cc8)[nH]c7*)cc6)C5=O)cc4)cc3)C2=O)cc1` (repeat unit), the figure is 258.00 °C; as for `*c1ccc(Nc2nc(Nc3ccc(-c4nc5cc(-c6ccc7[nH]c(*)nc7c6)ccc5[nH]4)cc3)nc(N(c3ccccc3)c3ccccc3)n2)cc1` (repeat unit), 329.00 °C. For `*c1ccc2c(c1)C(=O)N(c1ccc(C(=O)Nc3ccc(C(c4ccc(NC(=O)c5ccc(N6C(=O)c7ccc(C(*)(C(F)(F)F)C(F)(F)F)cc7C6=O)cc5)cc4)(C(F)(F)F)C(F)(F)F)cc3)cc1)C2=O` (repeat unit) the value was 351.00 °C; for `*c1ccc2c(c1)C(=O)N(c1cccc(C(=O)Nc3ccc(-c4ccc(NC(=O)c5cccc(N6C(=O)c7ccc(C(*)(C(F)(F)F)C(F)(F)F)cc7C6=O)c5)cc4)cc3)c1)C2=O` (repeat unit), 324.00 °C.
